# From US12649059B2, “Methods for reducing bleeding in hemophilia by vagus nerve stimulation to prime platelets” (The Feinstein Institutes for Medical Research, priority 2022, dated 2026)
# Like-named read-outs stand apart in the source and are kept apart here.
# Columns and labels:
# [1] = biological target: a7nAChR (Mus musculus, UniProt P49582)
# Excerpt: (§1) To confirm platelet a7nAChR modulates hemostasis, we first administered the pharmacological a7nAChR agonist nicotine to wild-type mice before tail injury. […] To restrict a7nAChR to platelets, we transferred platelets from wild-type or a7KO donor mice into a7nAChR-deficient animals before tail transection.
# (§2) Mice are screened before study inclusion to ensure visual similarity and consistency between the anatomy of the tail tips and the site of transection. […] Following vagus nerve stimulation or sham surgery, tails are immersed in water at 37+1° C. for five minutes. Tails are then removed from the solution, amputated 2 mm from the tip with a razor blade, and immediately placed into a 50 mL beaker containing water at 37+1° C. Tails are allowed to bleed uncontrolled until bleeding stops for a minimum of ten seconds. This duration of bleeding is recorded as bleeding time. For analyses of bleeding in factor VIII deficient mice, tails are first immersed in 0.9% saline at 37±1° C. for five minutes. Tails are then removed and amputated 2 mm from the tip with a razor blade. Tails are then placed into a 50 mL conical tube containing 0.9% saline at 37±1° C. Tails are allowed to bleed freely for a total of ten minutes. Total blood loss is determined by densitometry by measuring absorbance at 550 nm. A standard curve is created from a known volume of blood.
# [2] = tested on: a7nAChR
# Excerpt: as §1, §2
# a7nAChR (Mus musculus, UniProt P49582), sequence (P49582 23-502): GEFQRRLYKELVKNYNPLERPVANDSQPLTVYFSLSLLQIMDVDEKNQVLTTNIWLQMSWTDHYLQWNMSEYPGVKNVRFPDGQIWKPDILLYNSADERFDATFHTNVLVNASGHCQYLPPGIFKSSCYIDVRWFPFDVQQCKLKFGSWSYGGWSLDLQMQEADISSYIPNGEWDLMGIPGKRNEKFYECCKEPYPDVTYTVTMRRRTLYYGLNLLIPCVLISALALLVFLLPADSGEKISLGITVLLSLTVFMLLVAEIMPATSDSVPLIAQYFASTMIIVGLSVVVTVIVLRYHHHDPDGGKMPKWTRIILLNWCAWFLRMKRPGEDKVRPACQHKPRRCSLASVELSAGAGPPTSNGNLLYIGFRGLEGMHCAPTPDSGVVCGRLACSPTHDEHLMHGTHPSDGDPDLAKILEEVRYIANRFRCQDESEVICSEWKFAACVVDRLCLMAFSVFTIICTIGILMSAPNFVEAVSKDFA
smiles,measurement,setting,value
CN1CCCC1c1cccnc1 (stereo not shown) [nicotine],bleeding time as compared with vehicle treatment,"[1]; a7nAChR-deficient mice reconstituted with wild-type platelets, FIG. 2H, p<0.05 vs. vehicle control",significantly reduces bleeding time
same,bleeding time as compared with vehicle treatment,"[1]; wild-type mice, nicotine before tail injury, FIG. 2G, p<0.01 vs. vehicle control",significantly decreases bleeding time
same,bleeding time as compared with vehicle treatment,"[2]; a7nAChR-deficient mice receiving platelets from a7KO donors, FIG. 2H",not
same,bleeding time as compared with vehicle treatment,"[2]; a7nAChR-deficient mice, nicotine before tail transection, FIG. 2G",fails to reduce bleeding time
